Assay results as given in ChEMBL document CHEMBL1201862, “PubChem BioAssay data set” (2004).
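Five concentrations, 48 hours, 96-well plates. GI50 is the concentration that inhibits growth by half.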 Activity calls are given as the source filed them. Cut-off read from the data, not from the text of the source: active = GI50 up to about 1.1 µM and inactive = higher.

How the values were obtained:
Test in all cases: inhibition of tumour cell growth, NCI panel, 48 h
CAKI-1 = system: CAKI-1
SF-295 = system: SF-295
SK-MEL-5 = system: SK-MEL-5
CCRF-CEM = system: CCRF-CEM
OVCAR-3 = system: OVCAR-3
SK-MEL-2 = system: SK-MEL-2
NCI-H226 = system: NCI-H226
ACHN = system: ACHN
SK-OV-3 = system: SK-OV-3
NCI-H522 = system: NCI-H522
SN12C = system: SN12C
SK-MEL-28 = system: SK-MEL-28
K562 = system: K562
A549 = system: A549
MCF7 = system: MCF7
MOLT-4 = system: MOLT-4
786-0 = system: 786-0
MDA-MB-231 = system: MDA-MB-231
PC-3 = system: PC-3
SF-539 = system: SF-539
U-251 = system: U-251
OVCAR-5 = system: OVCAR-5
OVCAR-8 = system: OVCAR-8
SF-268 = system: SF-268
SNB-75 = system: SNB-75
HCC 2998 = system: HCC 2998
NCI-H460 = system: NCI-H460
HCT-116 = system: HCT-116
M14 = system: M14
SR = system: SR
A498 = system: A498
LOX IMVI = system: LOX IMVI
MDA-N = system: MDA-N
Malme-3M = system: Malme-3M
HL-60 = system: HL-60
SNB-19 = system: SNB-19
HOP-62 = system: HOP-62
HOP-92 = system: HOP-92
KM12 = system: KM12
NCI/ADR-RES = system: NCI/ADR-RES
IGROV-1 = system: IGROV-1
Hs-578T = system: Hs-578T
T47D = system: T47D
OVCAR-4 = system: OVCAR-4
COLO 205 = system: COLO 205
NCI-H23 = system: NCI-H23
MDA-MB-435 = system: MDA-MB-435
UO-31 = system: UO-31
UACC-257 = system: UACC-257
RPMI-8226 = system: RPMI-8226
SW-620 = system: SW-620
HCT-15 = system: HCT-15
RXF 393 = system: RXF 393
UACC-62 = system: UACC-62
BT-549 = system: BT-549
HT-29 = system: HT-29
DU-145 = system: DU-145
TK-10 = system: TK-10
EKVX = system: EKVX
DMS-273 = system: DMS-273
DLD-1 = system: DLD-1
KM-20L2 = system: KM-20L2
SNB-78 = system: SNB-78
DMS-114 = system: DMS-114
HOP-18 = system: HOP-18
LXFL 529 = system: LXFL 529

COC1=CC(=O)C(C2CC(=O)c3c(O)cc(O)cc3O2)=CC1=O (configuration not stated)
GI50 (CAKI-1): 18 µM (inactive)
GI50 (SF-295): 19.2 µM (inactive)
GI50 (SK-MEL-5): 16.8 µM (inactive)
GI50 (CCRF-CEM): 0.658 µM (active)
GI50 (OVCAR-3): 18.5 µM (inactive)
GI50 (SK-MEL-2): 17.4 µM (inactive)
GI50 (NCI-H226): 19.4 µM (inactive)
GI50 (ACHN): 15.9 µM (inactive)
GI50 (SK-OV-3): 36.8 µM (inactive)
GI50 (NCI-H522): 15.4 µM (inactive)
GI50 (SN12C): 19.8 µM (inactive)
GI50 (SK-MEL-28): 16.9 µM (inactive)
GI50 (K562): 5.86 µM (inactive)
GI50 (A549): 39.9 µM (inactive)
GI50 (MCF7): 22.9 µM (inactive)
GI50 (MOLT-4): 1.96 µM (inactive)
GI50 (786-0): 13.1 µM (inactive)
GI50 (MDA-MB-231): 12.2 µM (inactive)
GI50 (PC-3): 16.5 µM (inactive)
GI50 (SF-539): 20.7 µM (inactive)
GI50 (U-251): 18.5 µM (inactive)
GI50 (OVCAR-5): 19.6 µM (inactive)
GI50 (OVCAR-8): 25.9 µM (inactive)
GI50 (SF-268): 20.7 µM (inactive)
GI50 (SNB-75): 23.6 µM (inactive)
GI50 (HCC 2998): 16.8 µM (inactive)
GI50 (NCI-H460): 23 µM (inactive)
GI50 (HCT-116): 16.1 µM (inactive)
GI50 (M14): 17.7 µM (inactive)
GI50 (SR): 5.74 µM (inactive)
GI50 (A498): 29.9 µM (inactive)
GI50 (LOX IMVI): 16.3 µM (inactive)
GI50 (MDA-N): 15.6 µM (inactive)
GI50 (Malme-3M): 19.1 µM (inactive)
GI50 (HL-60): 2 µM (inactive)
GI50 (SNB-19): 25 µM (inactive)
GI50 (HOP-62): 17.1 µM (inactive)
GI50 (HOP-92): 7.55 µM (inactive)
GI50 (KM12): 17.3 µM (inactive)
GI50 (NCI/ADR-RES): 21.7 µM (inactive)
GI50 (IGROV-1): 19.1 µM (inactive)
GI50 (Hs-578T): 33.5 µM (inactive)
GI50 (T47D): 14.4 µM (inactive)
GI50 (OVCAR-4): 17.6 µM (inactive)
GI50 (COLO 205): 17.9 µM (inactive)
GI50 (NCI-H23): 20.5 µM (inactive)
GI50 (MDA-MB-435): 16.2 µM (inactive)
GI50 (UO-31): 18 µM (inactive)
GI50 (UACC-257): 18.5 µM (inactive)
GI50 (RPMI-8226): 10.9 µM (inactive)
GI50 (SW-620): 20.2 µM (inactive)
GI50 (HCT-15): 23.3 µM
GI50 (RXF 393): 19.1 µM (inactive)
GI50 (UACC-62): 16.4 µM (inactive)
GI50 (BT-549): 19.8 µM (inactive)
GI50 (HT-29): > 45.1 µM (inactive)
GI50 (DU-145): 19 µM (inactive)
GI50 (TK-10): 16.9 µM (inactive)
GI50 (EKVX): 16.6 µM (inactive)

CC(C)C(NCc1c2ccccc2[n+]([O-])c2ccccc12)C(=O)O (configuration not stated)
GI50 (CAKI-1): > 100 µM (inactive)
GI50 (SF-295): > 100 µM (inactive)
GI50 (SK-MEL-5): 46.5 µM (inactive)
GI50 (CCRF-CEM): 35.3 µM (inactive)
GI50 (OVCAR-3): 93.1 µM (inactive)
GI50 (SK-MEL-2): 81.1 µM (inactive)
GI50 (NCI-H226): 35.4 µM (inactive)
GI50 (ACHN): 42.3 µM (inactive)
GI50 (SK-OV-3): > 100 µM (inactive)
GI50 (NCI-H522): 34.5 µM (inactive)
GI50 (SN12C): 44.8 µM (inactive)
GI50 (SK-MEL-28): 44.7 µM (inactive)
GI50 (K562): 32.1 µM (inactive)
GI50 (A549): > 100 µM (inactive)
GI50 (MOLT-4): 26.2 µM (inactive)
GI50 (786-0): 54.7 µM (inactive)
GI50 (U-251): 38.1 µM (inactive)
GI50 (OVCAR-5): > 100 µM (inactive)
GI50 (DMS-273): 38.9 µM (inactive)
GI50 (OVCAR-8): 70 µM (inactive)
GI50 (SF-268): 32.2 µM (inactive)
GI50 (SNB-75): 20.9 µM (inactive)
GI50 (HCC 2998): > 100 µM (inactive)
GI50 (DLD-1): 36.4 µM (inactive)
GI50 (NCI-H460): 68.9 µM (inactive)
GI50 (HCT-116): 25.3 µM (inactive)
GI50 (M14): > 100 µM (inactive)
GI50 (A498): > 100 µM (inactive)
GI50 (LOX IMVI): 33.8 µM (inactive)
GI50 (Malme-3M): 92.7 µM (inactive)
GI50 (HL-60): 30.3 µM (inactive)
GI50 (SNB-19): 53.3 µM (inactive)
GI50 (HOP-62): > 100 µM (inactive)
GI50 (HOP-92): 1.8 µM (inactive)
GI50 (KM12): 52.6 µM (inactive)
GI50 (IGROV-1): 89.1 µM (inactive)
GI50 (OVCAR-4): 41.1 µM (inactive)
GI50 (KM-20L2): 43.8 µM (inactive)
GI50 (COLO 205): > 100 µM (inactive)
GI50 (NCI-H23): 44.1 µM (inactive)
GI50 (UO-31): 26.7 µM (inactive)
GI50 (UACC-257): > 100 µM (inactive)
GI50 (RPMI-8226): 28.2 µM (inactive)
GI50 (SW-620): 48.6 µM (inactive)
GI50 (HCT-15): 31 µM
GI50 (UACC-62): 56.6 µM (inactive)
GI50 (SNB-78): 68.2 µM (inactive)
GI50 (HT-29): 20 µM (inactive)
GI50 (DMS-114): 29.6 µM (inactive)
GI50 (HOP-18): 14.5 µM (inactive)
GI50 (TK-10): > 100 µM (inactive)
GI50 (EKVX): > 100 µM (inactive)
GI50 (LXFL 529): 35.1 µM (inactive)
